# Patent publication EP3952873B1 (priority 2019, dated 2020)
# Entries after “also recorded” stand apart in the source; their conditions may differ.
# How the values were obtained:
# [1] = target: T1, GHB high-affinity binding site/CaMK2a (Rattus norvegicus, UniProt P11275); assay: Rat brain membrane [3H]NCS-382 binding assay; conditions: for Ki: 16 nM [3H]NCS-382, rat cortical synaptic membranes, pH 6.0, 0-4 °C
# T1 construct: rat (Sprague-Dawley) cortical synaptic membranes (P2 synaptosomes) were prepared; from tissue; host or cells: rat (Sprague-Dawley) cortical synaptic membranes (P2 synaptosomes)
# T1 sequence (P11275 whole entry): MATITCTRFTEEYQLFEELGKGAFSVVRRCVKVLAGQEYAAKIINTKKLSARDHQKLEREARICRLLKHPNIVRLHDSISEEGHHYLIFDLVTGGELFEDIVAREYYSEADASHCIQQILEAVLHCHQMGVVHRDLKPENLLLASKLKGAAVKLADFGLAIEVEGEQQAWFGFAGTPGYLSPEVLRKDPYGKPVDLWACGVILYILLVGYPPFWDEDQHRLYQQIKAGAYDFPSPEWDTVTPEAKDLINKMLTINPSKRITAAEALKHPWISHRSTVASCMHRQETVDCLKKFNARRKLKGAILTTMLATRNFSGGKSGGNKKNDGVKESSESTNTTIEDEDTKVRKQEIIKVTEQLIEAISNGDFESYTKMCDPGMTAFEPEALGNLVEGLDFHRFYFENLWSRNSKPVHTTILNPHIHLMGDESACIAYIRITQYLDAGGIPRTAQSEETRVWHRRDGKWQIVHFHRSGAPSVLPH
# Experimental: According to previously published protocols, rat (Sprague-Dawley) cortical synaptic membranes (P2 synaptosomes) were prepared and stored at -20 °C until the day of assay (Wellendorph et al., 2005). Membranes were then washed three times with binding buffer (50 mM potassium phosphate buffer pH 6.0). The binding protocol was performed in 96-well microplates. In brief, compounds were incubated with 16 nM [^3H]NCS-382 radioligand and membranes for 60 min at 0-4 °C, filtered through GF/C filter plates (PerkinElmer) using a 96-well harvester (Packard), rapidly washed three times with ice-cold binding buffer, and filter plates dried. CPM values were determined using liquid scintillation counting in a TopCount NXT Microplate Scintillation & Luminescence Counter (PerkinElmer). Curves were generated using non-linear regression (GraphPad Prism 7, GraphPad Prism Software, San Diego, CA, USA).
# JON-11, related analogues, and pro-JON-11(10) were tested in the [^3H]NCS-382 binding assay (Wellendorph et al., 2005).
# [2] = target: T2, LAT-1 (Homo sapiens, UniProt Q01650); assay: LAT-1 [3H]leucine uptake in HEK293T cells; format: cell-based; conditions: HEK293T cells endogenously expressing LAT-1
# T2 construct: endogenous in cells; host or cells: HEK293T
# T2 sequence (Q01650 whole entry): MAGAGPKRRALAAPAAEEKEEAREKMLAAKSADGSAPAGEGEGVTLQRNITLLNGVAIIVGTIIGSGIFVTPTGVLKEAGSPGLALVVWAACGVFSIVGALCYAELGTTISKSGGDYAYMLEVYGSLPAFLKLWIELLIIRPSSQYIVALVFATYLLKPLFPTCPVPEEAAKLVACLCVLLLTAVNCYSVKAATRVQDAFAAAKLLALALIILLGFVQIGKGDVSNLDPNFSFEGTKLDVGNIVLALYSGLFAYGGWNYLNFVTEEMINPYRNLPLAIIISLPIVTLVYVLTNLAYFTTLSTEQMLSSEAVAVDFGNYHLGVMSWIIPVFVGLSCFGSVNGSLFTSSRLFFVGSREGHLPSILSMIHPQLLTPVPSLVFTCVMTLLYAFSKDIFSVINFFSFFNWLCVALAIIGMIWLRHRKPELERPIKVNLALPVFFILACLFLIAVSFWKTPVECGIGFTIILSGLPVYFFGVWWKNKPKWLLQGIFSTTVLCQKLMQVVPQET
# T2 sequence (P08195 102-630 partner): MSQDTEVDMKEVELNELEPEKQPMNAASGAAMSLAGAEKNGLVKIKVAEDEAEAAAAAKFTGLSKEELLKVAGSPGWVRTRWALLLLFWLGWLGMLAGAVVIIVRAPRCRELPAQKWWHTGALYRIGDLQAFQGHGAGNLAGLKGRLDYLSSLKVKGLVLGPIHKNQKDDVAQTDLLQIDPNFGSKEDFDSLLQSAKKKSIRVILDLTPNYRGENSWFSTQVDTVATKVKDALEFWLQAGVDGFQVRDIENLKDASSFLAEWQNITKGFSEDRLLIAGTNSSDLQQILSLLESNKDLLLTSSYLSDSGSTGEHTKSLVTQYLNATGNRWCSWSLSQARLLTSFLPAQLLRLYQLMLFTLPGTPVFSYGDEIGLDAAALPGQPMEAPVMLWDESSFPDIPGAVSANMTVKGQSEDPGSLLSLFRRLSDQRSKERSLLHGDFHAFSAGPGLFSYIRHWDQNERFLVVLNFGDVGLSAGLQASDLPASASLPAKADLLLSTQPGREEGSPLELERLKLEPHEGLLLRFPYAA
# From the text: (§1) To test selected prodrugs for substrate activity at LAT-1, we characterised the uptake and efflux of [^3H]leucine in the presence of compounds. For this purpose we used HEK293T cells endogenously expressing a functionally competent LAT-1, and performed assays according to Chien et al., 2018 to measure A) uptake and B) relative exchange efflux rate (L-leucine as control).
# [3] = test system: GHB binding sites i.e. CaMK2a; conditions: previously published; cited from earlier work
# [4] = format: in vitro ADME, mouse; conditions: rat liver microsomes as printed
# Experimental: (§2) Metabolic stability analysis was performed on a Bruker Avance Ultra High Performance Liquid Chromatography (UHPLC) (Bruker Daltonik, Bremen, Germany) equipped with a CTC-PAL-xt autosampler with cooled sample compartments (10 °C) and a column oven held at 40 °C. The UHPLC eluate was directed to a Bruker Evoq Elite triple quad-ropole MS equipped with a heated electrospray ionization source operated in positive ionization mode. Separation of 15 µL sample was obtained using a Phenomenex (Phenomenex, Torrance, CA, USA) Kinetex XB-C18 column (50 mm × 2.1 mm i.d., 1.7 µm particle size) equipped with a guard column. The analytes were separated using a solvent system consisting of water/acetonitrile (95:5, v/v) (eluent A) and water/acetonitrile (5:95, v/v) (eluent B); both acidified with 0.1% formic acid. The eluent flow rate was maintained at 0.4 mL/min with the following gradient elution profile: 0 min: 0% B; 5 min: 100% B; 6 min: 100% B, followed by three min equilibration at 0% B. Two ion transitions were monitored for all analytes and internal standard. […]
# (§3) The metabolic stabilities of JON-11 and the prodrugs 1a, 8-12, 19 and 20 were determined in vitro in rat plasma and rat liver microsomes. […] The corresponding loss of prodrug compounds and formation of parent drug JON-11 was determined by UHPLC-MS.
# [5] = Mouse plasma assay (metabolic stability); format: in vitro ADME; conditions: rat plasma as printed
# Experimental: as §2, §3
# [6] = in vivo; parameters: species or system mice; conditions: C57BL/6JRj, mouse, ip, male mice, dose 10 mg/kg i.p., 30 min, read-out: B/P ratio
# Experimental: To evaluate the ability of pro-JON-11 (10) and JON-11 to penetrate the blood-brain barrier, a brain-to-plasma distribution ratio (B/P ratio) was obtained. All subjects were male C57BL/6JRj mice (24-26 g, Janvier Labs, France) housed in groups of three-four with ad libitum access to food and water. The mice were maintained under diurnal conditions (12-h light/dark cycle with lights on at 7 AM) in a temperature (22±1 °C) and humidity-controlled room (50±10%). Ethical permission for the procedures used in this in vivo study was granted by the Danish Animal Experiments Inspectorate.
# Compounds were dissolved in PEG-400 (Sigma) at 20% of the final required volume. The final volume was then made up by 10% (w/v) hydroxypropyl-beta-cyclodextrin (Sigma Aldrich) in sterile saline. The solution was sonicated for 5 min. The JON-11 solution was pH-adjusted to 7.4 with 0.2% 2M NaOH.
# Both compounds were injected i.p. at a dose of 10 mg/kg (n=3 for each compound). […] After 30 min, the animals were sacrificed by decapitation, trunk blood was collected in EDTA-coated tubes and the brain was gently removed. Blood and tissues were temporarily stored on ice until plasma and brain homogenate preparation. Blood plasma was separated from cells by centrifugation for 10 min at 1,500 x g at 4 °C and plasma harvested. […]
# Plasma and brain exposure of JON-11 and pro-JON-11 were evaluated in male mice. […]
# [7] = format: in vitro ADME, mouse; conditions: plasma and liver microsomes; converted to parent JON-11 instantly
# Experimental: Metabolic stability analysis was performed on a Bruker Avance Ultra High Performance Liquid Chromatography (UHPLC) (Bruker Daltonik, Bremen, Germany) equipped with a CTC-PAL-xt autosampler with cooled sample compartments (10 °C) and a column oven held at 40 °C. The UHPLC eluate was directed to a Bruker Evoq Elite triple quad-ropole MS equipped with a heated electrospray ionization source operated in positive ionization mode. Separation of 15 µL sample was obtained using a Phenomenex (Phenomenex, Torrance, CA, USA) Kinetex XB-C18 column (50 mm × 2.1 mm i.d., 1.7 µm particle size) equipped with a guard column. The analytes were separated using a solvent system consisting of water/acetonitrile (95:5, v/v) (eluent A) and water/acetonitrile (5:95, v/v) (eluent B); both acidified with 0.1% formic acid. The eluent flow rate was maintained at 0.4 mL/min with the following gradient elution profile: 0 min: 0% B; 5 min: 100% B; 6 min: 100% B, followed by three min equilibration at 0% B. Two ion transitions were monitored for all analytes and internal standard.
# The mouse liver microsome assay was performed by transferring 25 µL of a 20 µM solution of the test compound (0.5% DMSO), dissolved in potassium phosphate monobasic buffer (pH 7.4) containing 3 mM MgCl2, to 9 wells in a microtiter plate. To each well, […] of a 0.5 mg/mL mouse liver (Sigma Aldrich) in buffer was added, and the microtiter plate were pre-incubated for 5 min at 37 °C in a plate shaker at 600 rpm. After pre-incubation, 50 µL 37 °C NADPH regenerating system, consisting of 2 mM NADP+, 10mM glucose-6-phosphate, and 2 U/mL glucose-6-phosphate dehydrogenase dissolved in buffer, was added to start the assay. In triplicates, immediately after adding the NADPH solution, 75 µL was transferred to an Eppendorf tube, containing […] ice-cold acetonitrile with 400 ng/mL internal standard (7). Similarly, samples were prepared after 30 min and 60 min incubation at 37 °C. The samples were vortexed for 30 seconds and centrifuged at 16,000 × g for 10 minutes before analyzing the supernatant. The individual analyte responses were normalized to the internal standard. Diazepam was used as positive control.
# The mouse […] assay was performed by transferring 75 µL of a 10 µM solution of the test compound (0.5% DMSO), dissolved in PBS buffer (pH 7.4), to 9 wells in a microtiter plate. To each well, 75 µL mouse plasma, harvested from in-house mice into K2-EDTA tubes and centrifuged at 1,600 × g, was added. […]
# as §3
# [8] = target: T2, LAT-1; assay: LAT-1 relative exchange efflux of [3H]leucine in HEK293T cells; format: cell-based; conditions: HEK293T cells endogenously expressing LAT-1
# From the text: as §1
smiles,measurement,setting,value
"O=C(O)Cc1cn2nc(-c3cccc(Cl)c3)ccc2n1 [compound 2, 2-(6-(3-Chlorophenyl)imidazo[1,2-b]pyridazin-2-yl)acetic acid]",Ki,[1],230 nM
"N[C@@H](Cc1ccc(NC(=O)Cc2cn3nc(-c4ccc(Cl)cc4)ccc3n2)cc1)C(=O)O [compound 12, (S)-2-amino-3-(4-(2-(6-(4-chlorophenyl)imidazo[1,2-b]pyridazin-2-yl)acetamido)phenyl)propanoic acid]",competition with [3H]leucine uptake at LAT-1,[2],not
"COc1cccc(-c2ccc3nc(CC(=O)O)cn3n2)c1 [compound 5, 2-(6-(3-Methoxyphenyl)imidazo[1,2-b]pyridazin-2-yl)acetic acid]",Ki,[1],440 nM
"O=C(O)C1=CC(O)CC1 (stereo not shown) [HOCPCA, 3-hydroxycyclopent-1-enecarboxylic acid]",affinity relative to GHB,[3],27 times
"O=C(O)Cc1cn2nc(-c3ccc(Cl)c(Cl)c3)ccc2n1 [compound 7, 2-(6-(3,4-Dichlorophenyl)imidazo[1,2-b]pyridazin-2-yl)acetic acid]",Ki,[1],190 nM
"CC(C)(C)OC(=O)Cc1cn2nc(-c3ccc(Cl)cc3)ccc2n1 [compound 10, tert.Butyl 2-(6-(4-chlorophenyl)imidazo[1,2-b]pyridazin-2-yl)acetate]",displacement of radioligand binding,"[1]; [3H]NCS-382, concentrations up to 10 µM",failed to displace radioligand binding
same,stability in liver microsomes,[4],high stability
same,half-life at 5 µM,[5]; pH 7.4,~1 h
same,stability in plasma,[5],fair stability
same,Kp at 30 min,[6],2.24
"CCOC(=O)Cc1cn2nc(-c3ccc(Cl)cc3)ccc2n1 [1a, ethyl 2-(6-(4-chlorophenyl)imidazo[1,2-b]pyridazin-2-yl)acetate]",chemical/metabolic stability of prodrug,[7],highly chemical/metabolic unstable
"CC(C)(C)C(=O)OCOC(=O)Cc1cn2nc(-c3ccc(Cl)cc3)ccc2n1 [compound 9, (2-(6-(4-Chlorophenyl)imidazo[1,2-b]pyridazin-2-yl)acetoxy)methyl pivalate]",chemical/metabolic stability of prodrug,[7],highly chemical/metabolic unstable
O=C(O)CCC(O)c1ccc(OCc2ccccc2)cc1 (stereo not shown) [BnOPh-GHB],affinity relative to GHB,[3],39 times
"O=C(O)Cc1cn2nc(-c3ccc(OCc4ccccc4)cc3)ccc2n1 [compound 4, 2-(6-(4-(benzyloxy)phenyl)imidazo[1,2-b]pyridazin-2-yl)acetic acid]",Ki,[1],2200 nM
"COc1ccc(-c2ccc3nc(CC(=O)O)cn3n2)cc1 [compound 6, 2-(6-(4-Methoxyphenyl)imidazo[1,2-b]pyridazin-2-yl)acetic acid]",Ki,[1],830 nM
"N[C@@H](Cc1cccc(NC(=O)Cc2cn3nc(-c4ccc(Cl)cc4)ccc3n2)c1)C(=O)O [compound 11, (S)-2-amino-3-(3-(2-(6-(4-chlorophenyl)imidazo[1,2-b]pyridazin-2-yl)acetamido)phenyl)propanoic acid]",competition with [3H]leucine uptake at LAT-1,[2],LAT1 inhibitor; also recorded: competes
same,exchange for [3H]leucine (relative exchange efflux),[8],cannot be exchanged
O=C(O)Cc1cn2nc(-c3cccc(OCc4ccccc4)c3)ccc2n1 [compound 3],Ki,[1],510 nM
"CC(=O)OCOC(=O)Cc1cn2nc(-c3ccc(Cl)cc3)ccc2n1 [compound 8, Acetoxymethyl 2-(6-(4-chlorophenyl)imidazo[1,2-b]pyridazin-2-yl)acetate]",chemical/metabolic stability of prodrug,[7],highly chemical/metabolic unstable
